The assay has as its system Mouse macrophages. As to the kind of experiment: Evaluation of reactive nitrogen species inhibiting ability (nitric oxide production, Griess reagent, LPS-treated macrophages). It is filed as cell-based. Conditions: for Nitrogen oxide concentration, Average / Nitrogen oxide concentration, Once / Nitrogen oxide concentration, Two times / Nitrogen oxide concentration, Three times: LPS 1 µg/ml, cultured 24 hours; for Nitrogen oxide concentration, Average: average of three; for Nitrogen oxide concentration, Once: replicate 1; for Nitrogen oxide concentration, Two times: replicate 2; for Nitrogen oxide concentration, Three times: replicate 3. How it is done: Mouse macrophages were divided into 1X10^6 cells in a 6-well plate and cultured for 24 hours, then treated with LPS (Lipopolysaccharide, concentration 1 µg/ml) solution, and treated with the 3-hydroxypropionic acid aqueous solution according to Preparation Example 1 at four concentrations (3HP concentration: 0 wt.%, 0.0125 wt.%, 0.025 wt.%, 0.05 wt.%), and then cultured again for 24 hours. Only the medium was then separated and centrifuged for 10 minutes to collect only the supernatant. The supernatant was mixed with Griess reagent (Sigma-Aldrich) reagent in a 1:1 ratio and reacted at room temperature, and then the absorbance (OD, wavelength 540 nm) was measured using a microplate reader. The measured value was substituted into the regression equation obtained from the standard curve prepared by reacting Griess reagent (Sigma-Aldrich) and NaNO2 in a 1:1 ratio to calculate the amount of nitric oxide(NO) produced. Here, the case in which neither the LPS solution nor the 3HP aqueous solution was treated was performed as a negative control group.

`O=C(O)CCO` [Example 3HP, 3-hydroxypropionic acid]: for the setting “3HP concentration 0.0125 wt.%”, the “Nitrogen oxide concentration, Average” value was determined as 64.949 µM; the “Nitrogen oxide concentration, Once” value is 63.956 µM; the “Nitrogen oxide concentration, Two times” value is reported as 64.800 µM; the “Nitrogen oxide concentration, Three times” value is recorded as 66.093 µM. Under “3HP concentration 0.025 wt.%”, the “Nitrogen oxide concentration, Average” value came out at 64.774 µM; the “Nitrogen oxide concentration, Once” value was found to be 63.138 µM; the “Nitrogen oxide concentration, Two times” value is given as 65.222 µM; the “Nitrogen oxide concentration, Three times” value stood at 65.961 µM. Further, where the note is “3HP concentration 0.05 wt.%”, the “Nitrogen oxide concentration, Average” value stood at 56.630 µM; the “Nitrogen oxide concentration, Once” value worked out at 56.146 µM; the “Nitrogen oxide concentration, Two times” value came out at 56.357 µM; the “Nitrogen oxide concentration, Three times” value worked out at 57.386 µM. Also, the “inhibiting the production of reactive nitrogen species” value (under the treatment concentrations 0.0125 to 0.05 wt.%, result in words) is reported as “effect of inhibiting the production of reactive nitrogen species was exhibited”.

For the origin of these results see patent EP4684784A1, “ANTI-INFLAMMATORY COSMETIC COMPOSITION” (LG Chem, Ltd., priority 2023, dated 2025).
